{
  "source": "paper PMC9050674",
  "about": "“Structure-based inhibitor design for reshaping bacterial morphology” (Communications Biology, 2022)",
  "key": {"[1]": {"molecular_target": "Pgp3 WT (Campylobacter jejuni, UniProt Q0P921)", "sequence (Q0P921 entry or part of it)": "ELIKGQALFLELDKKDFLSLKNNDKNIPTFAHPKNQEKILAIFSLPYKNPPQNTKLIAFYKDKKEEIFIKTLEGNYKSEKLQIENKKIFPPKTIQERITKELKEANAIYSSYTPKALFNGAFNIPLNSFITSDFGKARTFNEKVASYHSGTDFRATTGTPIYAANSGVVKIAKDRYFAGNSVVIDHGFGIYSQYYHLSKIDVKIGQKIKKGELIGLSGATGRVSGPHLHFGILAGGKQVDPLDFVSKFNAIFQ", "test": "Isothermal-titration calorimetry (ITC) with Pgp3 WT", "format": "binding, C. jejuni", "experimental": "The gene encoding the amino-acid sequence of Glu21–Gln273 of Pgp3 from C. jejuni (strain ATCC 33560) was cloned into the expression vector pET-21a (Novagen) producing the recombinant wild-type Pgp3 protein with the C-terminal His6-tag ([…]). The protein expression and purification were conducted according to previously described methods with exception. The HiTrap chelating HP (GE Healthcare) column was washed with the lysis buffer containing 60 mM imidazole and the protein was eluted with a linear gradient from 100 to 500 mM imidazole. The protein was further purified by gel filtration on a HiLoad 16/60 Superdex 200 prep-grade column (GE Healthcare), which was previously equilibrated with 20 mM Tris-HCl pH 8.0 and 200 mM NaCl. The fractions containing the Pgp3 protein were pooled and concentrated to 15 mg mL^−1 for crystallization. The variants of Pgp3 (S169A, R195A, H216A, and H247A) were generated by site-directed mutagenesis using primer sets in Supplementary Table 1 and were purified as described for the WT Pgp3.\nUsing a micro-syringe, 2.5 μL of each inhibitor (2.25 mM) was added at intervals of 200 s to the Pgp3 solution in the cell with gentle stirring (125 rpm). The same ITC condition was applied to evaluate the KD values of BMK-S101 for each Pgp3 variant. All data were fitted to the single-binding-site model. Fitted curves were generated using GraphPad Prism 7. Data are mean ± SEM from triplicate experiments and the ITC thermograms are representative of triplicate experiments."}, "[2]": {"system": "C. jejuni ATCC 33560 WT", "format": "cell-based, Campylobacter jejuni", "experimental": "Invasion assay was performed as described previously with modifications. Briefly, prior to bacterial infection, a monolayer of 1 × 10^5 Caco-2 cells was prepared in a 24-well tissue culture plate and incubated in DMEM with 10% FBS, and 0.6% CMC at 37 °C under 5% CO2. The cultures of wild-type C. jejuni strain with or without BMK-S301 (100 μM) and KL-L9P (1 μM) were prepared, as described above (TEM). The bacterial suspensions were diluted in DMEM with 10% FBS and 0.6% CMC, and then added onto the cell monolayer at a multiplicity of infection (MOI) of 100. After a 3 h incubation, the cells were incubated with 250 μg/mL of gentamicin in the fresh pre-warmed medium for 2 h to kill any extracellular bacteria. The wells were washed three times with 1 × PBS, and treated with 0.1% Triton X-100 in 1 × PBS for 15 min. After dilution with 1 × PBS, the suspensions were plated on MH agar to enumerate the CFU. […]"}},
  "note": "Where “and” joins values, the source holds several entries; their conditions need not be identical. Equal values may be shown once.",
  "data": [
    {"smiles": "CC(=O)N[C@@H](Cc1ccc(S(N)(=O)=O)cc1)C(=O)N[C@H](C)C(=O)NO", "note": "[BMK-S301]", "values": [
      {"measurement": "Kd", "setting": "[1]", "value": "3.5 ± 0.2", "unit": "µM"},
      {"measurement": "invasion ability of WT C. jejuni", "setting": "[2]; 100 μM BMK-S301 and 1 μM KL-L9P, high-viscosity medium, 3 h after infection", "value": "decreased compared to that of the untreated C. jejuni"},
      {"measurement": "Invasion assay (intracellular bacteria, relative)", "setting": "[2]; BMK-S0301 100 μM with MAP 1 μM, single replicates, source data Fig. 5d", "value": "90.1581 and 72.6517 and 79.6542 and 66.8677 and 113.675 and 78.0123 and 88.3559 and 93.1319 and 83.5799"}
    ]}
  ]
}
